Square brackets hold non-standard residues; d marks the D form. Peptide text beside a SMILES is read from it.
How the values were obtained:
[1] = tested on: primary rat lymph-nodes purified T cells; assay: CD3/CD28-induced IL-2 release in primary rat lymph-nodes purified T cells; assay type: cell-based; conditions: added 1 h before CD3/CD28 (2 μg/mL); supernatant 24 h
Description: Control rat were sacrificed and lymph-nodes were harvested. T cells further were purified (using magnetic negative selection) and plated into 96-well plates at 200.000 cells/well. Cells were treated with anti-rat CD3 and anti-rat CD28 antibodies (2 μg/mL). JNK inhibitor with SEQ ID NO: 172 was added to the cultures 1 h before CD3/CD28 treatment and IL-2 release was assessed in supernatant 24 h after treatment.
Control animal were sacrificed, lymph nodes (LN) were harvested and kept in complete RPMI medium. LN were smashed with complete RPMI on 70 μm filter using a 5 ml piston. A few drops of media were added to keep strainer wet. Cells were centrifuged for 7 min at 450 g and 4° C. Pellet was resuspended in 5 ml fresh medium. Cells were passed again through cell strainer. An aliquot of cells was counted, while cells were centrifuged again 10 min at 1400 rpm and 4° C. Cells were resuspended in MACS buffer (80 μl of MACS buffer per 10^7 cells). 10 μl of anti-rat MHC microbeads were added per 10 million cells, cells were incubated for 15 min at 4°-8° C. Cells were washed with 15 ml MACS buffer and centrifuge for 7 min at 700 g and 4° C. […] Resuspended cells were counted and plated at density of 200000 cells/well in 100 μl of complete medium. […] Cytokines were then measured using standard Elisa kits. Results are expressed as pg/ml of supernatant of the measured cytokine. […]

human whole blood = assay: PHA-L-induced cytokine release in human whole blood, 3 days; assay type: cell-based; conditions: 1, 3, 10 μM, PHA-L 5 μg/mL
Description: FIG. 22 JNK inhibition and TNF-α release in human whole blood. The JNK inhibitor with SEQ ID NO: 172 was added at three different concentrations, namely 1, 3 and 10 μM 1 h before whole blood stimulation with PHA-L (5 μg/mL) for 3 days.
FIG. 23 JNK inhibition and IL-2 release in human whole blood. The JNK inhibitor with SEQ ID NO: 172 was added at three different concentrations, namely 1, 3 and 10 μM 1 h before whole blood stimulation with PHA-L (5 μg/mL) for 3 days.
Whole blood from human healthy volunteers was collected using a venipuncture connected to a pre-labeled vacuum tube containing sodium citrate. Tubes are gently mixed by inversion 7-8 times; and are then kept at RT until stimulation. 350 μl of RPMI+P/S were added into 1.2 ml-96-well plate. 10 times concentrated of SEQ ID NO: 172 was prepared in RPMI+P/S (50 μl per well). 50 μl was added into 1.2 ml-96 well plates. 50 μl of whole blood was then added in each well where either medium alone or JNK inhibitor has been previously added. Whole blood was incubated at 37° C., 5% CO2 for 60 min. 50 μl/well of ligands diluted in RPMI+P/S was prepared, corresponding to the final dilution 10 times concentrated. After 60 min of incubation, ligand was added; wells were then mixed by pipetting up and down the blood. […] Cytokine were then measured using standard Elisa kits. Results are expressed as pg/ml of supernatant of the measured cytokine.

CC(C)C[C@H](NC(=O)[C@H](CC(N)=O)NC(=O)[C@H](CC(C)C)NC(=O)[C@@H](NC(=O)[C@@H](C)NC(=O)[C@@H]1CCCN1C(=O)[C@H](CCCNC(=N)N)NC(=O)[C@@H](CCCCN)NC(=O)[C@@H]1CCCN1C(=O)[C@H](CCCNC(=N)N)NC(=O)[C@@H](CCCNC(=N)N)NC(=O)[C@H](CCCNC(=N)N)NC(=O)[C@H](CCCNC(=N)N)NC(=O)[C@H](CCC(N)=O)NC(=O)[C@@H](CCCNC(=N)N)NC(=O)[C@H](CCCNC(=N)N)NC(=O)[C@H](CCCCN)NC(=O)[C@H](CCCCN)NC(=O)[C@H](N)CCCNC(=N)N)[C@@H](C)O)C(=O)N[C@H](Cc1ccccc1)C(N)=O [SEQ ID NO: 172, rKKRrQRRrRPkRPaTLNLf] (H-[dR]KKR[dR]QRR[dR]RP[dK]RP[dA]TLNL[dF]-NH2; N-terminus assumed)
CD3/CD28-induced IL-2 release [1]: Dose-dependent inhibition
PHA-L-induced IL-2 release (human whole blood): did reduce the PHA-L-induced IL-2 release in a dose-dependent manner
PHA-L-induced TNF-α release (human whole blood): did reduce the PHA-L-induced TNF-α release in a dose-dependent manner

— patent publication US11331364B2, “Use for JNK inhibitor molecules for treatment of various diseases” (Xigen Inflammation Ltd., priority 2014, dated 2022)
